Results reported in US20130129667A1, “Attractant compounds for yellow jacket wasps” (priority 2007, published 2013).

How the values were obtained:
Assay type in all cases: in vivo
Other insects = test: Field trap catch of other insects (selectivity)
Description: (§1) On the top inside of the bottle, 2 cm below the cap 17, a 10 ml 'micro' glass vial 19 was installed. In this small container, 0.1 ml of an attractive compound 20 was deposited. In the bottom of the 500 ml bottle, 200 ml of water with liquid household detergent 22 was placed. The traps 10 or containers with the attractant 20, were placed randomly in different species of trees, mostly 'thorns,' Acacia […] Tebo, […] Lo Orozco, and apple trees in Casablanca (Chile), each hung from a wire 24, at a height of about 11⁄2 m from the ground, with a separation between them of about 10 m. […] The traps 10 were placed in Catapilco in the […] farm the 19th of February 2007, in the geographical locations of 33° 37' 06'' S. and 71° 19' 14'' O, for the Campo Lindo farm in Casablanca in 33° 14' 23'' S. and 71° 17' 37'' O on the 20th of February 2007 and Lo Orozco in 33° 13'26'' S. and 71° 24' 04'' O the 9th of April 2007. […] In the extent it was necessary the containers were filled up with water and detergent.

Vespula germanica = test: Field trap catch of yellow jacket wasps with attractant
Description: as §1

Bees = test: Field trap catch of bees (selectivity); conditions: Lo Orozco; 21 days; five containers per attractant
Description: (§2) On the top inside of the bottle, 2 cm below the cap 17, a 10 ml 'micro' glass vial 19 was installed. In this small container, 0.1 ml of an attractive compound 20 was deposited. In the bottom of the 500 ml bottle, 200 ml of water with liquid household detergent 22 was placed. The traps 10 or containers with the attractant 20, were placed randomly in different species of trees, mostly 'thorns,' Acacia […] Tebo, […] Lo Orozco, and apple trees in Casablanca (Chile), each hung from a wire 24, at a height of about 11⁄2 m from the ground, with a separation between them of about 10 m. Two replications were used per each attractant in Catapilco, and five replications in Lo Orozco and Casablanca. The traps 10 were placed in Catapilco in the […] farm the 19th of February 2007, in the geographical locations of 33° 37' 06'' S. and 71° 19' 14'' O, for the Campo Lindo farm in Casablanca in 33° 14' 23'' S. and 71° 17' 37'' O on the 20th of February 2007 and Lo Orozco in 33° 13'26'' S. and 71° 24' 04'' O the 9th of April 2007. […] In the extent it was necessary the containers were filled up with water and detergent.

Polistes = test: Field trap catch of Polistes (selectivity); conditions: Lo Orozco; 21 days; five containers per attractant
Description: as §2

[1] = Campo Lindo farm, Casablanca, 18 days, two containers per attractant, 0.1 ml
[2] = Manantiales farm, Catapilco, 17 days, two containers per attractant, 0.1 ml
[3] = Lo Orozco, 21 days, five containers per attractant

Compound | Total number of other insects captured (Other insects; [1]) | Total number of other insects captured (Other insects; [2]) | Total number of V. germanica workers captured (Vespula germanica; [1]) | Total number of V. germanica workers captured (Vespula germanica; [2]) | Total number of Bees captured (Bees) | Total number of other insects captured (Other insects; [3]) | Attraction compared with the standard mixture of acetic acid with isobutanol (Vespula germanica; Lo Orozco field tests) | Total number of V. germanica workers captured (Vespula germanica; [3]) | Total number of Polistes captured (Polistes)
CCCCCCCCCCCCO [1-Dodecanol] | 1 Sirfid | 0 | 102 | 0 |  |  |  |  | 
CCCCCC(C)=O [2-Heptanone] | 0 | 0 | 92 | 69 |  |  |  |  | 
CCCCCCCC(C)=O [2-Nonanone] | 0 | 0 | 178 | 0 |  |  |  |  | 
CCCCCCC(C)=O [2-Octanone] | 1 Moth | 0 | 209 | 416 | 0 | 0 | superior | 2.673 | 1
CCCCCC(=O)CC [3-Octanone] | 0 |  | 218 | 356 | 0 | 0 |  | 892 | 0
CCCCCCC=O [Heptaldehyde] | 0 | 0 | 129 | 9 |  |  |  |  | 
CCCCCCCCC=O [Nonyl aldehyde] | 0 | 3 Bees | 97 | 1 |  |  |  |  | 
CCCCCCCC=O [Octyl aldehyde] | 0 | 0 | 101 | 3 |  |  |  |  | 
CCCCC/C=C/C=C/C=O [Trans,trans-2,4-decadienal] | 0 | 0 | 5 | 84 |  |  |  |  | 
CCCC/C=C/C=C/C=O [Trans,trans-2,4-nonadienal] | 0 | 0 | 218 | 0 |  |  |  |  | 
CCCC/C=C/C=O [Trans-2-heptenal] | 0 | 0 | 252 | 407 | 0 | 0 |  | 999 | 0
CCCCC/C=C/CO [Trans-2-octen-1-ol] | 0 | 1 Bee | 297 | 474 | 2 | 0 |  |  | 1
CCCCC=O [Valeraldehyde] | 0 | 0 | 84 | 24 |  |  |  |  | 
